Measured values taken from patent publication US7414040B2, “Thrombopoietin mimetics” (SmithKline Beecham Corporation, priority 2002, dated 2008).

Target: T1, human Tpo-R (Homo sapiens, UniProt P40238)
T1 construct: expressed in transfected cells; host or cells: murine BaF3 cell line
T1 sequence (P40238 26-635): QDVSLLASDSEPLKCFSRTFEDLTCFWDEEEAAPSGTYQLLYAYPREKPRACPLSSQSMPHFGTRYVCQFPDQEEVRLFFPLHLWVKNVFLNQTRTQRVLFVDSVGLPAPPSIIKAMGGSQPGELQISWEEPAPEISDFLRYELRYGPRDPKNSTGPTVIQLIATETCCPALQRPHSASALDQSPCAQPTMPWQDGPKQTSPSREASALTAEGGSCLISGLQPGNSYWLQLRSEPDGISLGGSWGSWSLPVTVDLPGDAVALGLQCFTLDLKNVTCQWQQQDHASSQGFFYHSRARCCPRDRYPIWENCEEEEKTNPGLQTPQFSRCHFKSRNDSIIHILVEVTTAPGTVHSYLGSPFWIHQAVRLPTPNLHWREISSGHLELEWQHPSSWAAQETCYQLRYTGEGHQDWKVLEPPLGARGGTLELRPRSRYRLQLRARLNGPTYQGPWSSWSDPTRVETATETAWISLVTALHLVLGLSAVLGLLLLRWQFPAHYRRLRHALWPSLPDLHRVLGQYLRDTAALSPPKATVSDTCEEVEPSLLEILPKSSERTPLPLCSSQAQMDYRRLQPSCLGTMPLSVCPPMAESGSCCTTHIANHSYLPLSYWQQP
Test: BaF3/hTPO-R in vitro proliferation assay
Assay type: cell-based
Settings: murine BaF3 cell line transfected with human Tpo-R
Description: Compounds of the present invention were tested for potency as mimetics of TPO in an in vitro proliferation assay using the murine BaF3 cell line transfected with human Tpo-R. Survival and growth is dependent on the presence of TPO.

`CC1=NN(C2CCCCC2)C(=O)C1=NNc1cccc(-c2cccc(C(=O)O)c2)c1O` [Example 1, 3′-[N′-(1-cyclohexyl-3-methyl-5-oxo-1,5-dihydro-pyrazol-4-ylidene)-hydrazino]-2′-hydroxy-biphenyl-3-carboxylic acid] was tested, and the EC50 was 800 nM and the “activity, % TPO” value (relative to TPO) was 160 % TPO.
